In ChEMBL document CHEMBL1201862, “PubChem BioAssay data set” (2004):
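Each compound was tested at five concentrations against cells in 96-well plates for 48 hours. Abbreviation: GI50, concentration required for 50% inhibition of growth.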 Active and inactive are the calls of the source. No stated cut-off is given here; in the data, active = GI50 up to about 1.1 µM and inactive = higher.

Columns and labels:
Experiment in all cases: NCI tumour cell line growth inhibition, 48 h
[1] = test system: NCI-H226
[2] = test system: SW-620
[3] = test system: SNB-19
[4] = test system: SK-MEL-5
[5] = test system: KM12
[6] = test system: A549
[7] = test system: SK-MEL-28
[8] = test system: Malme-3M
[9] = test system: OVCAR-3
[10] = test system: HCT-116
[11] = test system: TK-10
[12] = test system: MDA-N
[13] = test system: LOX IMVI
[14] = test system: NCI-H23
[15] = test system: SF-268
[16] = test system: U-251
[17] = test system: UACC-62
[18] = test system: MCF7
[19] = test system: CCRF-CEM
[20] = test system: COLO 205

Row | Structure (SMILES) | GI50 [1] | GI50 [2] | GI50 [3] | GI50 [4] | GI50 [5] | GI50 [6] | GI50 [7] | GI50 [8] | GI50 [9] | GI50 [10] | GI50 [11] | GI50 [12] | GI50 [13] | GI50 [14] | GI50 [15] | GI50 [16] | GI50 [17] | GI50 [18] | GI50 [19] | GI50 [20]
1 | O=C1C(O)=C(C(C2=C(O)C(=O)c3ccccc3C2=O)c2ccc(Cl)cc2)C(=O)c2ccccc21 | 28.9 µM (inactive) | 4.69 µM (inactive) | 19.5 µM (inactive) | 6.67 µM (inactive) | 8.97 µM (inactive) | 19.3 µM (inactive) | 28.1 µM (inactive) | 5.25 µM (inactive) | 4.93 µM (inactive) | 6.34 µM (inactive) | 14.7 µM (inactive) | 1.83 µM (inactive) | 2.64 µM (inactive) | 4.85 µM (inactive) | 10.4 µM (inactive) | 6.24 µM (inactive) | 9.75 µM (inactive) | 5.13 µM (inactive) | 6.4 µM (inactive) | 18.6 µM (inactive)
2 | COc1ccccc1/C=C/C1=NN(c2cccc(S(=O)(=O)O)c2)C2(C1)C(Cl)C(=O)N2c1nc2ccccc2s1 (centres undefined) | 28 µM (inactive) | > 100 µM (inactive) | > 84.7 µM (inactive) | 28.6 µM (inactive) | 51.6 µM (inactive) | 71.4 µM (inactive) | > 100 µM (inactive) | > 100 µM (inactive) | 31.5 µM (inactive) | 61.9 µM (inactive) | 45.1 µM (inactive) | 85.3 µM (inactive) | 29.7 µM (inactive) | 31.9 µM (inactive) | > 100 µM (inactive) | 52.7 µM (inactive) | 48.8 µM (inactive) | 40.7 µM (inactive) | 13.5 µM (inactive) | 88.9 µM (inactive)
3 | COC(=O)NNC(c1ccc(Cl)cc1)c1ccc(Cl)cc1 | 17.3 µM (inactive) | 25.1 µM (inactive) | 17.3 µM (inactive) | 16.5 µM (inactive) | 17 µM (inactive) | 15.3 µM (inactive) | 18.7 µM (inactive) | 20.6 µM (inactive) | 15.2 µM (inactive) | 15.7 µM (inactive) | 17.6 µM (inactive) | 22.3 µM (inactive) | 16.4 µM (inactive) | 16.3 µM (inactive) | 21.8 µM (inactive) | 19.5 µM (inactive) | 16 µM (inactive) | 23.7 µM (inactive) | 17.1 µM (inactive) | 18.1 µM (inactive)
4 | BC(=O)NC(CC(C)C)C(=O)NCC(=O)NC1c2ccsc2C(=O)C1O.CN(C)C (centres undefined) | 95.5 µM (inactive) | > 100 µM (inactive) | > 100 µM (inactive) | > 100 µM (inactive) | > 100 µM (inactive) | > 100 µM (inactive) | > 100 µM (inactive) | > 100 µM (inactive) | > 100 µM (inactive) | > 100 µM (inactive) | > 100 µM (inactive) | > 100 µM (inactive) | > 100 µM (inactive) | > 100 µM (inactive) | > 100 µM (inactive) | > 100 µM (inactive) | > 100 µM (inactive) | 2.37 µM (inactive) | 31.6 µM (inactive) | > 100 µM (inactive)
5 | CCC1(O)C(=O)OCc2c1cc1n(c2=O)Cc2cc3c(N)cccc3nc2-1 (centres undefined) [RS-9-Aminocamptothecin] | < 0.01 µM (active) | 0.0281 µM (active) | < 0.0138 µM (active) | 0.0255 µM (active) | 0.24 µM (active) | 0.0354 µM (active) | 0.188 µM (active) | 0.21 µM (active) | 0.277 µM (active) | 0.0171 µM (active) | 3.02 µM (inactive) | 0.182 µM (active) | < 0.01 µM (active) | < 0.0109 µM (active) | < 0.01 µM (active) | < 0.0115 µM (active) | < 0.01 µM (active) | < 0.01 µM (active) | < 0.01 µM (active) | 0.741 µM (active)
6 | C[C@H](c1ccccc1)n1c(N)c(-c2nc3ccccc3s2)c2ccc([N+](=O)[O-])cc2c1=O | 4.65 µM (inactive) | 4.14 µM (inactive) | 3.49 µM (inactive) | 4.8 µM (inactive) | 4.45 µM (inactive) | 9.98 µM (inactive) | 3 µM (inactive) | 12.9 µM (inactive) | 4.57 µM (inactive) | 1.91 µM (inactive) | 10.2 µM (inactive) | 13.6 µM (inactive) | 4.46 µM (inactive) | 1.87 µM (inactive) | 6.27 µM (inactive) | 3.66 µM (inactive) | 4.33 µM (inactive) | 9.27 µM (inactive) | 0.773 µM (active) | 5.43 µM (inactive)
7 | Nc1nc(Cl)cc(Oc2ccc(Cl)cc2)n1 | > 100 µM (inactive) | > 58.6 µM (inactive) | > 53.7 µM (inactive) | > 56.6 µM (inactive) | > 100 µM (inactive) | > 100 µM (inactive) | > 57.3 µM (inactive) | 34.3 µM (inactive) | > 56.4 µM (inactive) | > 57.9 µM (inactive) | 28.2 µM (inactive) | > 61 µM (inactive) | > 48.3 µM (inactive) | 29.5 µM (inactive) | > 54.8 µM (inactive) | > 56.2 µM (inactive) | 29.9 µM (inactive) | > 53.2 µM (inactive) | > 77.6 µM (inactive) | > 60.5 µM (inactive)
8 | COC1=CC(=O)c2c(cc(COP(N)(=O)N(CCCl)CCCl)n2C)C1=O (centres undefined) | 0.14 µM (active) | 0.158 µM (active) | 2.64 µM (inactive) | 1.36 µM (inactive) | 1.49 µM (inactive) | 0.918 µM (active) | 2.9 µM (inactive) | 1.4 µM (inactive) | 0.342 µM (active) | 0.122 µM (active) | 1.67 µM (inactive) | 1.61 µM (inactive) | 0.0284 µM (active) | 0.7 µM (active) | < 0.032 µM (active) | 0.0822 µM (active) | 0.721 µM (active) | 0.0767 µM (active) | < 0.0256 µM (active) | 1.39 µM (inactive)
9 | O=C(N/N=C\C=C\c1ccc([N+](=O)[O-])o1)C(=O)N/N=C\C=C\c1ccc([N+](=O)[O-])o1 | > 100 µM (inactive) | 24.5 µM (inactive) | > 100 µM (inactive) | > 100 µM (inactive) | > 100 µM (inactive) | > 100 µM (inactive) | > 100 µM (inactive) | > 100 µM (inactive) | 24.1 µM (inactive) | 25.1 µM (inactive) | 56.9 µM (inactive) | > 100 µM (inactive) | 4.94 µM (inactive) | > 100 µM (inactive) | > 100 µM (inactive) | > 100 µM (inactive) | > 100 µM (inactive) | 44.1 µM (inactive) | 1.36 µM (inactive) | > 100 µM (inactive)
10 | O=C(Nc1ccc(Cl)cc1)NS(=O)(=O)c1coc2ccccc2c1=O | > 10 µM (inactive) | > 10 µM (inactive) | > 10 µM (inactive) | > 10 µM (inactive) | > 10 µM (inactive) | > 10 µM (inactive) | > 10 µM (inactive) | > 10 µM (inactive) | > 10 µM (inactive) | > 10 µM (inactive) | > 10 µM (inactive) | > 10 µM (inactive) | > 10 µM (inactive) | > 10 µM (inactive) | > 10 µM (inactive) | > 10 µM (inactive) | > 10 µM (inactive) | > 10 µM (inactive) | > 10 µM (inactive) | > 10 µM (inactive)
11 | COc1ccc(N2CCN(Cc3c(C(C)=O)[n+]([O-])c4ccccc4[n+]3[O-])CC2)cc1 | 29 µM (inactive) | 42.2 µM (inactive) | 35.3 µM (inactive) | 37.1 µM (inactive) | 48.1 µM (inactive) | 40.3 µM (inactive) | 43.3 µM (inactive) | 12 µM (inactive) | > 100 µM (inactive) | 49.5 µM (inactive) | 9.29 µM (inactive) | 36.4 µM (inactive) | 56.4 µM (inactive) | 10.6 µM (inactive) | 21.1 µM (inactive) | 45 µM (inactive) | 71.6 µM (inactive) | 24.2 µM (inactive) | 61.1 µM (inactive) | 60.8 µM (inactive)
12 | CCOC(=O)[C@@H](NC(=O)OC(C)(C)C)[C@@H](O)C(=O)OCC | > 100 µM (inactive) | > 100 µM (inactive) | > 100 µM (inactive) | > 100 µM (inactive) | > 100 µM (inactive) | > 100 µM (inactive) | > 100 µM (inactive) | > 100 µM (inactive) | > 100 µM (inactive) | > 100 µM (inactive) | > 100 µM (inactive) | > 100 µM (inactive) | > 100 µM (inactive) | > 100 µM (inactive) | > 100 µM (inactive) | > 100 µM (inactive) | > 100 µM (inactive) | > 100 µM (inactive) | > 100 µM (inactive) | > 100 µM (inactive)
13 | O=C1CC(NC(=O)C(F)(F)F)c2c(Br)sc(N3CCNCC3)c21 (centres undefined) | > 100 µM (inactive) | > 100 µM (inactive) | > 100 µM (inactive) | > 100 µM (inactive) | > 100 µM (inactive) | > 100 µM (inactive) | > 100 µM (inactive) | > 100 µM (inactive) | > 100 µM (inactive) | > 100 µM (inactive) | > 100 µM (inactive) | > 100 µM (inactive) | > 100 µM (inactive) | > 100 µM (inactive) | > 100 µM (inactive) | > 100 µM (inactive) | > 100 µM (inactive) | > 100 µM (inactive) | > 100 µM (inactive) | > 100 µM (inactive)
14 | CCOC(=O)[C@@H]1[C@@H]2NC(=O)N[C@@]1(C)Oc1ccccc12 | > 100 µM (inactive) | > 100 µM (inactive) | > 100 µM (inactive) | > 100 µM (inactive) | > 100 µM (inactive) |  | > 100 µM (inactive) | > 100 µM (inactive) | > 100 µM (inactive) | > 100 µM (inactive) | > 100 µM (inactive) | > 100 µM (inactive) | > 100 µM (inactive) | > 100 µM (inactive) | > 100 µM (inactive) | > 100 µM (inactive) | > 100 µM (inactive) | > 100 µM (inactive) | > 100 µM (inactive) | > 100 µM (inactive)
